Molecules are shown by their SMILES. Positions of bridges follow the written chain, without caps; N, C: chain ends. Non-standard residues stand in square brackets, D forms with d. Residues, ends and D or L forms follow the SMILES beside them. hCha = N[C@@H](CCC1CCCCC1)C(=O)O; hPhe = N[C@@H](CCc1ccccc1)C(=O)O; R8 = C=CCCCCCC[C@@](C)(N)C(=O)O; Cit = NC(=O)NCCC[C@H](N)C(=O)O; S5 = C=CCCC[C@](C)(N)C(=O)O Where only a bound is given, the exact number is not on record here.

Assay [1] concerns the target Bcl-2 (Homo sapiens, UniProt P10415). The assay can be described thus: Ki determination for Bcl-2 (BCL-2 family binding spectrum). Conditions: read-out: Ki BCL-2. In short, it runs like this: (§1)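 Competitive fluorescence polarization: compounds (1 nM–1 mM) with 25 nM fluoresceinated peptidomimetic macrocycle and 50 nM protein in 140 mM NaCl, 50 mM Tris-HCl pH 7.4, 30 min at room temperature. Constants from nonlinear regression.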

Assay [2] has as its target Mcl-1 (Homo sapiens, UniProt Q07820). Briefly: Ki determination for Mcl-1 (BCL-2 family binding spectrum). Conditions: read-out: Ki MCL-1. A digest of the protocol: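 Competitive fluorescence polarization assay in which compounds displace a fluoresceinated peptidomimetic macrocycle tracer from Mcl-1. Affinity constants were obtained by nonlinear regression.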
The target in assay [3] is Bcl-xL (Homo sapiens, UniProt Q07817). The assay can be described thus: Ki determination for Bcl-xL (BCL-2 family binding spectrum). Conditions: read-out: Ki BCL-XL. In short, it runs like this: as §1
Sequence of Bcl-xL (Q07817 whole entry, species assumed): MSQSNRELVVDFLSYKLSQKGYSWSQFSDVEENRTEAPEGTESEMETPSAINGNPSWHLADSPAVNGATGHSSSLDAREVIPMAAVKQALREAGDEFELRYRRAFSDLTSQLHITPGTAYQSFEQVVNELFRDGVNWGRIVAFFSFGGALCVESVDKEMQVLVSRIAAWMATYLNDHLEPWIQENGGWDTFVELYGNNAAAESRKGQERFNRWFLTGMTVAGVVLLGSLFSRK

Sequence of Bcl-2 (P10415 whole entry, species assumed): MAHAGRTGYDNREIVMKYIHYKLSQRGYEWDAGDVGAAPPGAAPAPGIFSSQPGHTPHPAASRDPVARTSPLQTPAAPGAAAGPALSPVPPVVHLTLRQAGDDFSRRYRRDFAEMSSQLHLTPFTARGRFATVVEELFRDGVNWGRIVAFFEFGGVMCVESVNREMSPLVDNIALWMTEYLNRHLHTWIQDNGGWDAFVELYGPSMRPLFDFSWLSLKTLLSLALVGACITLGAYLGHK
Sequence of Mcl-1 (Q07820 whole entry, species assumed): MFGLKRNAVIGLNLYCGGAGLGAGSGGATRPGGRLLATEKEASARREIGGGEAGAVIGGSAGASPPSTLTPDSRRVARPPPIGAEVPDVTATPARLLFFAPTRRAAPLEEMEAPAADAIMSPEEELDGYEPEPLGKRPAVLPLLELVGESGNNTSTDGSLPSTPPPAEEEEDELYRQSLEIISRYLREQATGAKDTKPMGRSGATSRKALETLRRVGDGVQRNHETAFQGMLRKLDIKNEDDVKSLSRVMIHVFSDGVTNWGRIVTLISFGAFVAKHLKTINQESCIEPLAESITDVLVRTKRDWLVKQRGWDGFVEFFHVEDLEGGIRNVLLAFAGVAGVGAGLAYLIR

Broadly, the Ki is the dissociation constant of the complex between target and ligand, obtained from inhibition or displacement. On to `CC[C@H](C)[C@H](NC(C)=O)C(=O)N[C@@H](Cc1c[nH]c2ccccc12)C(=O)N[C@H](C(=O)N[C@@H](C)C(=O)N[C@@H](C)C(=O)N[C@@H](C)C(=O)N[C@@H](CC(C)C)C(=O)N[C@@H](CCCNC(=N)N)C(=O)N[C@]1(C)CCCCCCC=CCCC[C@@](C)(C(=O)N[C@@H](Cc2ccc(O)cc2)C(=O)N[C@@H](Cc2ccc(O)cc2)C(=O)N[C@@H](C)C(N)=O)NC(=O)[C@H](CC(N)=O)NC(=O)[C@H](Cc2ccccc2)NC(=O)[C@H](CCC(N)=O)NC(=O)[C@H](CC(=O)O)NC(=O)CNC(=O)[C@H]([C@@H](C)CC)NC1=O)[C@@H](C)CC` [compound 1652] (Ac-IWIAAALR[R8]IGDQFN[S5]YYA-NH2; staple 9-16), for which the Ki in assay [1] worked out at 22 nM; in assay [2], 6 nM; in assay [3], 4 nM.
The matching figures for `CC[C@H](C)[C@H](NC(C)=O)C(=O)N[C@@H](Cc1c[nH]c2ccccc12)C(=O)N[C@H](C(=O)N[C@@H](C)C(=O)N[C@@H](CCC(N)=O)C(=O)N[C@@H](C)C(=O)N[C@@H](CC(C)C)C(=O)N[C@@H](CCCNC(N)=O)C(=O)N[C@]1(C)CCCCCCC=CCCC[C@@](C)(C(=O)N[C@@H](Cc2ccc(O)cc2)C(=O)N[C@@H](Cc2ccc(O)cc2)C(=O)N[C@@H](C)C(N)=O)NC(=O)[C@H](CC(N)=O)NC(=O)[C@H](Cc2ccccc2)NC(=O)[C@H](CCC(N)=O)NC(=O)[C@H](CC(=O)O)NC(=O)CNC(=O)[C@H]([C@@H](C)CC)NC1=O)[C@@H](C)CC` [compound 1656] (Ac-IWIAQAL[Cit][R8]IGDQFN[S5]YYA-NH2; staple 9-16): 88.2 nM, 1.7 nM and 28.8 nM.
With `CC[C@H](C)[C@H](NC(C)=O)C(=O)N[C@@H](Cc1c[nH]c2ccccc12)C(=O)N[C@H](C(=O)N[C@@H](C)C(=O)N[C@@H](CCC(N)=O)C(=O)N[C@@H](C)C(=O)N[C@@H](CC(C)C)C(=O)N[C@@H](Cc1c[nH]cn1)C(=O)N[C@]1(C)CCCCCCC=CCCC[C@@](C)(C(=O)N[C@@H](Cc2ccc(O)cc2)C(=O)N[C@@H](Cc2ccc(O)cc2)C(=O)N[C@@H](C)C(N)=O)NC(=O)[C@H](CC(N)=O)NC(=O)[C@H](Cc2ccccc2)NC(=O)[C@H](C)NC(=O)[C@H](CC(=O)O)NC(=O)CNC(=O)[C@H]([C@@H](C)CC)NC1=O)[C@@H](C)CC` [compound 1657] (Ac-IWIAQALH[R8]IGDAFN[S5]YYA-NH2; staple 9-16), the Ki in assay [1], in assay [2] and in assay [3] was > 1000 nM in each case.
`CC[C@H](C)[C@H](NC(C)=O)C(=O)N[C@@H](Cc1c[nH]c2ccccc12)C(=O)N[C@H](C(=O)N[C@@H](C)C(=O)N[C@@H](CCC(N)=O)C(=O)N[C@@H](C)C(=O)N[C@@H](CC(C)C)C(=O)N[C@@H](Cc1c[nH]cn1)C(=O)N[C@]1(C)CCCCCCC=CCCC[C@@](C)(C(=O)N[C@@H](Cc2ccc(O)cc2)C(=O)N[C@@H](Cc2ccc(O)cc2)C(=O)N[C@@H](C)C(N)=O)NC(=O)[C@H](CC(N)=O)NC(=O)[C@H](Cc2ccccc2)NC(=O)[C@H](CCC(N)=O)NC(=O)[C@H](CC(=O)O)NC(=O)CNC(=O)[C@H]([C@@H](C)CC)NC1=O)[C@@H](C)CC` [compound 1658] (Ac-IWIAQALH[R8]IGDQFN[S5]YYA-NH2; staple 9-16): the Ki in assay [1], in assay [2] and in assay [3] was > 1000 nM throughout.
With `CC[C@H](C)[C@H](NC(C)=O)C(=O)N[C@@H](Cc1c[nH]c2ccccc12)C(=O)N[C@H](C(=O)N[C@@H](C)C(=O)N[C@@H](CCC(N)=O)C(=O)N[C@@H](C)C(=O)N[C@@H](CC(C)C)C(=O)N[C@@H](CCCNC(=N)N)C(=O)N[C@]1(C)CCCCCCC=CCCC[C@@](C)(C(=O)N[C@@H](Cc2ccc(O)cc2)C(=O)N[C@@H](Cc2ccc(O)cc2)C(=O)N[C@@H](C)C(N)=O)NC(=O)[C@H](CC(N)=O)NC(=O)[C@H](C)NC(=O)[C@H](C)NC(=O)[C@H](CC(=O)O)NC(=O)CNC(=O)[C@H]([C@@H](C)CC)NC1=O)[C@@H](C)CC` [compound 1661] (Ac-IWIAQALR[R8]IGDAAN[S5]YYA-NH2; staple 9-16), the Ki stood at 140 nM in assay [1], 7.5 nM in assay [2] and 402 nM in assay [3].
`CC[C@H](C)[C@H](NC(C)=O)C(=O)N[C@@H](Cc1c[nH]c2ccccc12)C(=O)N[C@H](C(=O)N[C@@H](C)C(=O)N[C@@H](CCC(N)=O)C(=O)N[C@@H](C)C(=O)N[C@@H](CC(C)C)C(=O)N[C@@H](CCCNC(=N)N)C(=O)N[C@]1(C)CCCCCCC=CCCC[C@@](C)(C(=O)N[C@@H](Cc2ccc(O)cc2)C(=O)N[C@@H](Cc2ccc(O)cc2)C(=O)N[C@@H](C)C(N)=O)NC(=O)[C@H](CC(N)=O)NC(=O)[C@H](Cc2ccccc2)NC(=O)[C@H](CCC(N)=O)NC(=O)[C@H](CC(=O)O)NC(=O)[C@H](C)NC(=O)[C@H]([C@@H](C)CC)NC1=O)[C@@H](C)CC` [compound 1666] (Ac-IWIAQALR[R8]IADQFN[S5]YYA-NH2; staple 9-16): the Ki was 25.6 nM in assay [1], 116 nM in assay [2] and 7.7 nM in assay [3].
The matching figures for `CC[C@H](C)[C@H](NC(C)=O)C(=O)N[C@@H](Cc1c[nH]c2ccccc12)C(=O)N[C@H](C(=O)N[C@@H](C)C(=O)N[C@@H](CCC(N)=O)C(=O)N[C@@H](C)C(=O)N[C@@H](CC(C)C)C(=O)N[C@@H](CCCNC(=N)N)C(=O)N[C@]1(C)CCCCCCC=CCCC[C@@](C)(C(=O)N[C@@H](Cc2ccc(O)cc2)C(=O)N[C@@H](Cc2ccc(O)cc2)C(=O)N[C@@H](C)C(N)=O)NC(=O)[C@H](CC(N)=O)NC(=O)[C@H](Cc2ccccc2)NC(=O)[C@H](CCC(N)=O)NC(=O)[C@H](CC(=O)O)NC(=O)CNC(=O)[C@H](C)NC1=O)[C@@H](C)CC` [compound 1668] (Ac-IWIAQALR[R8]AGDQFN[S5]YYA-NH2; staple 9-16): 4.8 nM, 122 nM and 1.9 nM.
The corresponding values for `CC[C@H](C)[C@H](NC(C)=O)C(=O)N[C@@H](Cc1c[nH]c2ccccc12)C(=O)N[C@H](C(=O)N[C@@H](C)C(=O)N[C@@H](CCC(N)=O)C(=O)N[C@@H](C)C(=O)N[C@@H](CC(C)C)C(=O)N[C@@H](C)C(=O)N[C@]1(C)CCCCCCC=CCCC[C@@](C)(C(=O)N[C@@H](Cc2ccc(O)cc2)C(=O)N[C@@H](Cc2ccc(O)cc2)C(=O)N[C@@H](C)C(N)=O)NC(=O)[C@H](CC(N)=O)NC(=O)[C@H](Cc2ccccc2)NC(=O)[C@H](C)NC(=O)[C@H](CC(=O)O)NC(=O)CNC(=O)[C@H]([C@@H](C)CC)NC1=O)[C@@H](C)CC` [compound 1673] (Ac-IWIAQALA[R8]IGDAFN[S5]YYA-NH2; staple 9-16) are > 1000 nM, 73.8 nM and 386 nM.
The matching figures for `CC[C@H](C)[C@H](NC(C)=O)C(=O)N[C@@H](Cc1c[nH]c2ccccc12)C(=O)N[C@H](C(=O)N[C@@H](C)C(=O)N[C@@H](CCC(N)=O)C(=O)N[C@@H](C)C(=O)N[C@@H](CC(C)C)C(=O)N[C@@H](CCCNC(=N)N)C(=O)N[C@]1(C)CCCCCCC=CCCC[C@@](C)(C(=O)N[C@@H](Cc2ccc(O)cc2)C(=O)N[C@@H](Cc2ccc(O)cc2)C(=O)N[C@@H](C)C(N)=O)NC(=O)[C@H](CC(N)=O)NC(=O)[C@H](Cc2ccccc2)NC(=O)[C@H](C)NC(=O)[C@H](CC(N)=O)NC(=O)CNC(=O)[C@H]([C@@H](C)CC)NC1=O)[C@@H](C)CC` [compound 1674] (Ac-IWIAQALR[R8]IGNAFN[S5]YYA-NH2; staple 9-16): 405 nM, 195 nM and 416 nM.
Turning to `CC[C@H](C)[C@H](NC(C)=O)C(=O)N[C@@H](Cc1c[nH]c2ccccc12)C(=O)N[C@H](C(=O)N[C@@H](C)C(=O)N[C@@H](CCC(N)=O)C(=O)N[C@@H](C)C(=O)N[C@@H](C)C(=O)N[C@@H](CCCNC(=N)N)C(=O)N[C@]1(C)CCCCCCC=CCCC[C@@](C)(C(=O)N[C@@H](Cc2ccc(O)cc2)C(=O)N[C@@H](Cc2ccc(O)cc2)C(=O)N[C@@H](C)C(N)=O)NC(=O)[C@H](CC(N)=O)NC(=O)[C@H](Cc2ccccc2)NC(=O)[C@H](C)NC(=O)[C@H](CC(=O)O)NC(=O)CNC(=O)[C@H]([C@@H](C)CC)NC1=O)[C@@H](C)CC` [compound 1675] (Ac-IWIAQAAR[R8]IGDAFN[S5]YYA-NH2; staple 9-16), the Ki in assay [1], in assay [2] and in assay [3] was > 1000 nM throughout.
Take `CC[C@H](C)[C@H](NC(C)=O)C(=O)N[C@@H](Cc1c[nH]c2ccccc12)C(=O)N[C@H](C(=O)N[C@@H](C)C(=O)N[C@@H](CCC(N)=O)C(=O)N[C@@H](C)C(=O)N[C@@H](CCC1CCCCC1)C(=O)N[C@@H](CCCNC(=N)N)C(=O)N[C@]1(C)CCCCCCC=CCCC[C@@](C)(C(=O)N[C@@H](Cc2ccc(O)cc2)C(=O)N[C@@H](Cc2ccc(O)cc2)C(=O)N[C@@H](C)C(N)=O)NC(=O)[C@H](CC(N)=O)NC(=O)[C@H](Cc2ccccc2)NC(=O)[C@H](C)NC(=O)[C@H](CC(=O)O)NC(=O)CNC(=O)[C@H]([C@@H](C)CC)NC1=O)[C@@H](C)CC` [compound 1690] (Ac-IWIAQA[hCha]R[R8]IGDAFN[S5]YYA-NH2; staple 9-16): the Ki in assay [1] is > 1000 nM; in assay [2], 3.8 nM; in assay [3] it was > 1000 nM.
Take `CC[C@H](C)[C@H](NC(C)=O)C(=O)N[C@@H](Cc1c[nH]c2ccccc12)C(=O)N[C@H](C(=O)N[C@@H](C)C(=O)N[C@@H](CCC(N)=O)C(=O)N[C@@H](C)C(=O)N[C@@H](CCc1ccccc1)C(=O)N[C@@H](CCCNC(=N)N)C(=O)N[C@]1(C)CCCCCCC=CCCC[C@@](C)(C(=O)N[C@@H](Cc2ccc(O)cc2)C(=O)N[C@@H](Cc2ccc(O)cc2)C(=O)N[C@@H](C)C(N)=O)NC(=O)[C@H](CC(N)=O)NC(=O)[C@H](Cc2ccccc2)NC(=O)[C@H](C)NC(=O)[C@H](CC(=O)O)NC(=O)CNC(=O)[C@H]([C@@H](C)CC)NC1=O)[C@@H](C)CC` [compound 1692] (Ac-IWIAQA[hPhe]R[R8]IGDAFN[S5]YYA-NH2; staple 9-16): the Ki was > 1000 nM in assay [1], 7.5 nM in assay [2] and > 1000 nM in assay [3].
